From US9862712B2, “Benzimidazole based EGFR inhibitors” (COUNCIL OF SCIENTIFIC & INDUSTRIAL RESEARCH, priority 2014, dated 2018)
“Also recorded” adds a separate entry of the source.

Key:
[1] = system: A549 Cell line (Lung Cancer Cell line); assay: MTT cell proliferation assay, A549 Cell line; format: cell-based, human; details: for viability at 0.01 µM / viability at 0.1 µM / viability at 2.5 µM / viability at 5 µM / viability at 10 µM: Homo sapiens, 72 h, MTT; for viability at 0.01 µM: A549, 0.01 μM; for viability at 0.1 µM: A549, 0.1 μM; for viability at 2.5 µM: A549, 2.5 μM; for viability at 5 µM: A549, 5 μM; for viability at 10 µM: A549, 10 μM; for anticancer activity against A549 Cell line (in words): compared among 15 molecules and with Gefitinib
Experimental: (§1) 1. Protocol Followed for Anti Cancer Activity and Results, Cell Proliferation Assays: Cell lines used herein were purchased from NCCS (National Center for Cell Sciences) Pune, India. Invitro Activity was performed in NCL (National Chemical Laboratory) Pune. Each cell line was plated in 96-well microtiter plates (10,000 cells per well), and serial dilutions of indicated compounds were added. At the end of the incubation period (72 h at 37° C.), cell viability was determined by a tetrazolium dye, MTT (3-(4,5-dimethylthiazol-2-yl)-2,5-diphenyl tetrazolium bromide) (Promega, USA). The formazan crystals were dissolved in DMSO, and the absorbance at 600 nm was recorded using an ELISA plate reader. IC50 values were calculated using nonlinear regression and defined as the concentration needed for a 50% reduction in absorbance of treated versus untreated control cells.
By using the above procedure, the compounds of the invention were tested on A549 Cell line and the results obtained are presented below in table 4, Refer FIG. 1.

MCF-7 Cell line = assay: MTT cell proliferation assay, MCF-7 Cell line; format: cell-based; details: for viability at 0.01 µM / viability at 0.1 µM / viability at 2.5 µM / viability at 5 µM / viability at 10 µM: Homo sapiens, MCF7, 72 h, MTT; for viability at 0.01 µM: MCF-7, 0.01 μM; for viability at 0.1 µM: MCF-7, 0.1 μM; for viability at 2.5 µM: MCF-7, 2.5 μM; for viability at 5 µM: MCF-7, 5 μM; for viability at 10 µM: MCF-7, 10 μM; for anticancer activity against MCF-7 Cell line (in words): compared among 15 molecules
Experimental: as §1
Table 4 indicates anticancer activity against A549 Cell line. The Gefitinib was used as standard and % cell Viable was measured compared to control. The procedure used was MTT assay as mentioned. […] By using the above procedure, the compounds of the invention were tested on MCF-7 Cell line and the results obtained are presented below in table 5, Refer FIG. 2.

HOP-62 Cell line = assay: MTT cell proliferation assay, HOP-62 Cell line; format: cell-based; details: for viability at 0.01 µM / viability at 0.1 µM / viability at 2.5 µM / viability at 5 µM / viability at 10 µM: Homo sapiens, 72 h, MTT; for viability at 0.01 µM: HOP-62, 0.01 μM; for viability at 0.1 µM: HOP-62, 0.1 μM; for viability at 2.5 µM: HOP-62, 2.5 μM; for viability at 5 µM: HOP-62, 5 μM; for viability at 10 µM: HOP-62, 10 μM; for anticancer activity against HOP-62 Cell line (in words): compared among 15 molecules and with Gefitinib
Experimental: as §1
By using the above procedure, the compounds of the invention were tested on HOP-62 Cell line and the results obtained are presented below in table 6, Refer FIG. 3.

MDA-MB-436 Cell line = assay: MTT cell proliferation assay, MDA-MB-436 Cell line; format: cell-based; details: for viability at 0.01 µM / viability at 0.1 µM / viability at 2.5 µM / viability at 5 µM / viability at 10 µM: Homo sapiens, 72 h, MTT; for viability at 0.01 µM: MDA-MB-436, 0.01 μM; for viability at 0.1 µM: MDA-MB-436, 0.1 μM; for viability at 2.5 µM: MDA-MB-436, 2.5 μM; for viability at 5 µM: MDA-MB-436, 5 μM; for viability at 10 µM: MDA-MB-436, 10 μM; for anticancer activity against MDA-MB-436 Cell line (in words): compared among 15 molecules and with Gefitinib
Experimental: as §1
By using the above procedure, the compounds of the invention were tested on MDA-MB-436 Cell line and the results obtained are presented below in table 7, Refer FIG. 4.

[2] = system: U87MG Cell line (Glioblastoma cell line); assay: MTT cell proliferation assay, U87MG Cell line; format: cell-based; details: for viability at 0.01 µM / viability at 0.1 µM / viability at 2.5 µM / viability at 5 µM / viability at 10 µM: Homo sapiens, U-87 MG, U87MG, 72 h, MTT; for anticancer activity against U87-MG Cell line (in words): compared among 15 molecules
Experimental: as §1
By using the above procedure, the compounds of the invention were tested on U87MG Cell line (glioblastoma cell line) and the results obtained are presented below in table 8, Refer FIG. 5.

Log P (Table 3) = format: physicochemical; details: no method given

Row | Structure (SMILES) | viability at 0.01 µM [1] | viability at 0.1 µM [1] | viability at 2.5 µM [1] | viability at 5 µM [1] | viability at 10 µM [1] | viability at 0.01 µM (MCF-7 Cell line) | viability at 0.1 µM (MCF-7 Cell line) | viability at 2.5 µM (MCF-7 Cell line) | viability at 5 µM (MCF-7 Cell line) | viability at 10 µM (MCF-7 Cell line) | viability at 0.01 µM (HOP-62 Cell line) | viability at 0.1 µM (HOP-62 Cell line) | viability at 2.5 µM (HOP-62 Cell line) | viability at 5 µM (HOP-62 Cell line) | viability at 10 µM (HOP-62 Cell line) | viability at 0.01 µM (MDA-MB-436 Cell line) | viability at 0.1 µM (MDA-MB-436 Cell line) | viability at 2.5 µM (MDA-MB-436 Cell line) | viability at 5 µM (MDA-MB-436 Cell line) | viability at 10 µM (MDA-MB-436 Cell line) | other results
1 | COc1ccc(Nc2nc(N)c(-c3nc4ccccc4[nH]3)s2)cc1 [Molecule S4-M2, 5-(1H-benzo[d]imidazol-2-yl)-N^2-(4-methoxyphenyl)thiazole-2,4-diamine] | 95% | 89.5% | 75.5% | 60.5% | 51.5% | 97% | 95.5% | 95.5% | 90.5% | 84.5% | 99% | 93.5% | 85.5% | 77.5% | 75.5% | 113% | 108% | 95.5% | 93.5% | 90.5% | viability at 0.01 µM [2]: 93%; viability at 0.1 µM [2]: 86.5%; viability at 2.5 µM [2]: 79.5%; viability at 5 µM [2]: 68.5%; viability at 10 µM [2]: 55.5%; logP (Log P (Table 3)): 2.11; melting point: 224 to 226 °C
2 | Nc1nc(Nc2ccc([N+](=O)[O-])cc2)sc1-c1nc2ccccc2[nH]1 [Molecule S4-M3, 5-(1H-benzo[d]imidazol-2-yl)-N^2-(4-nitrophenyl)thiazole-2,4-diamine] | 97.6% | 90.4% | 81.8% | 71.8% | 62.8% | 99.6% | 92.4% | 90.8% | 84.8% | 72.8% | 99.6% | 94.4% | 90.8% | 90.8% | 88.8% | 99.6% | 94.4% | 90.8% | 79.8% | 66.8% | viability at 0.01 µM [2]: 96.6%; viability at 0.1 µM [2]: 82.4%; viability at 2.5 µM [2]: 69.8%; viability at 5 µM [2]: 55.8%; viability at 10 µM [2]: 30.8%; logP (Log P (Table 3)): 3.32; melting point: 260 to 262 °C
3 | Nc1nc(Nc2ccccc2[N+](=O)[O-])sc1-c1nc2ccccc2[nH]1 [Molecule S4-M4, 5-(1H-benzo[d]imidazol-2-yl)-N^2-(2-nitrophenyl)thiazole-2,4-diamine] | 57.1% | 49.1% | 34.7% | 25.9% | 18.4% | 72.7% | 61.2% | 53.8% | 42.9% | 31.9% | 43.1% | 36.1% | 25.7% | 18.9% | 12.4% | 69.7% | 58.2% | 42.8% | 28.9% | 21.9% | anticancer activity against A549 Cell line (in words) [1]: most active; anticancer activity against MCF-7 Cell line (in words) (MCF-7 Cell line; listed as M4): most active; also recorded: showing Invitro activity; anticancer activity against HOP-62 Cell line (in words) (HOP-62 Cell line; listed as M4): most active; also recorded: Invitro activity comparable to standard Gefitinib; anticancer activity against MDA-MB-436 Cell line (in words) (MDA-MB-436 Cell line; listed as M4): most active; also recorded: Invitro activity comparable to standard Gefitinib; viability at 0.01 µM [2]: 45.7%; viability at 0.1 µM [2]: 33.2%; viability at 2.5 µM [2]: 22.8%; viability at 5 µM [2]: 18.9%; viability at 10 µM [2]: 8.86%; anticancer activity against U87-MG Cell line (in words) [2]: most active; logP (Log P (Table 3)): 3.33; melting point: 220 to 222 °C
4 | Nc1nc(Nc2ccc(Br)cc2F)sc1-c1nc2ccccc2[nH]1 [Molecule S4-M7, 5-(1H-benzo[d]imidazol-2-yl)-N^2-(4-bromo-2-fluorophenyl)thiazole-2,4-diamine] | 97.1% | 90.9% | 81.8% | 71.8% | 62.8% | 100% | 101% | 101% | 101% | 101% | 102% | 101% | 100% | 100% | 90.9% | 100% | 99.9% | 101% | 93.8% | 91.8% | viability at 0.01 µM [2]: 98.1%; viability at 0.1 µM [2]: 94.9%; viability at 2.5 µM [2]: 93.8%; viability at 5 µM [2]: 90.8%; viability at 10 µM [2]: 85.8%; logP (Log P (Table 3)): 3.2; melting point: 200 to 202 °C
5 | Nc1nc(Nc2ccccc2)sc1-c1nc2ccccc2[nH]1 [Molecule S4-M1, 5-(1H-benzo[d]imidazol-2-yl)-N^2-phenylthiazole-2,4-diamine] | 49.1% | 39.1% | 29.1% | 15.1% | 10.9% | 69.8% | 60.4% | 49.1% | 42.6% | 30.9% | 54.1% | 42.1% | 34.1% | 22.1% | 12.9% | 82.8% | 70.4% | 67.1% | 54.6% | 40.9% | anticancer activity against A549 Cell line (in words) [1]: most active; anticancer activity against MCF-7 Cell line (in words) (MCF-7 Cell line; listed as M1): most active; also recorded: showing Invitro activity; anticancer activity against HOP-62 Cell line (in words) (HOP-62 Cell line; listed as M1): most active; also recorded: Invitro activity comparable to standard Gefitinib; anticancer activity against MDA-MB-436 Cell line (in words) (MDA-MB-436 Cell line; listed as M1): most active; also recorded: Invitro activity comparable to standard Gefitinib; viability at 0.01 µM [2]: 40.8%; viability at 0.1 µM [2]: 32.4%; viability at 2.5 µM [2]: 23.1%; viability at 5 µM [2]: 14.6%; viability at 10 µM [2]: 8.94%; anticancer activity against U87-MG Cell line (in words) [2]: most active; logP (Log P (Table 3)): 3.02; melting point: 268 to 270 °C
6 | Cc1ccc2[nH]c(-c3sc(Nc4cccc(C(F)(F)F)c4)nc3N)nc2c1 [Molecule S4-M13, N^2-(3-(trifluoromethyl)phenyl)-5-(5-methyl-1H-benzo[d]imidazol-2-yl)thiazole-2,4-diamine] | 99.4% | 82.9% | 73.6% | 61.6% | 50.6% | 99.4% | 92.9% | 81.4% | 72.6% | 66.9% | 99.4% | 96.9% | 90.4% | 80.6% | 75.6% | 98.4% | 96.9% | 97.4% | 97.6% | 97.9% | viability at 0.01 µM [2]: 95.8%; viability at 0.1 µM [2]: 83.7%; viability at 2.5 µM [2]: 71.2%; viability at 5 µM [2]: 60.8%; viability at 10 µM [2]: 53.8%
